Data from ChEMBL document CHEMBL1201862, “PubChem BioAssay data set” (2004).
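Test compounds were applied to cells in 96-well plates for 48 hours at 5 doses. At the GI50, growth is halved.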 The source made the active and inactive calls. Rule as the data show it: active = GI50 up to about 1.1 µM and inactive = higher.

Legend:
Assay in all cases: growth of human tumour cells (NCI), 48 h
SK-MEL-5 = tested on: SK-MEL-5
CCRF-CEM = tested on: CCRF-CEM
NCI-H460 = tested on: NCI-H460
HOP-62 = tested on: HOP-62
SR = tested on: SR
OVCAR-5 = tested on: OVCAR-5
M14 = tested on: M14
U-251 = tested on: U-251
HOP-92 = tested on: HOP-92
SF-268 = tested on: SF-268
HT-29 = tested on: HT-29
MOLT-4 = tested on: MOLT-4
NCI-H23 = tested on: NCI-H23
NCI-H522 = tested on: NCI-H522
A498 = tested on: A498
EKVX = tested on: EKVX
HCC 2998 = tested on: HCC 2998
SF-295 = tested on: SF-295
NCI-H226 = tested on: NCI-H226

Compound | GI50 (SK-MEL-5) | GI50 (CCRF-CEM) | GI50 (NCI-H460) | GI50 (HOP-62) | GI50 (SR) | GI50 (OVCAR-5) | GI50 (M14) | GI50 (U-251) | GI50 (HOP-92) | GI50 (SF-268) | GI50 (HT-29) | GI50 (MOLT-4) | GI50 (NCI-H23) | GI50 (NCI-H522) | GI50 (A498) | GI50 (EKVX) | GI50 (HCC 2998) | GI50 (SF-295) | GI50 (NCI-H226)
Cc1ccc(S(=O)(=O)NC(=O)NS(=O)(=O)O)cc1 | > 100 µM (inactive) | > 100 µM (inactive) | > 100 µM (inactive) | > 100 µM (inactive) | < 0.01 µM (active) | > 100 µM (inactive) | > 100 µM (inactive) | > 100 µM (inactive) | > 100 µM (inactive) | > 100 µM (inactive) | > 100 µM (inactive) | > 100 µM (inactive) | > 100 µM (inactive) | > 100 µM (inactive) |  |  |  |  | 
COc1cc(Cn2c3c(c4cc(O)ccc42)C(=O)c2ccccc2C3=O)cc(OC)c1 | 4.29 µM (inactive) |  | 5.61 µM (inactive) | 2.77 µM (inactive) | 0.494 µM (active) | 9.23 µM (inactive) | 16.3 µM (inactive) | 3.6 µM (inactive) | 1.85 µM (inactive) | 2.88 µM (inactive) | 4.1 µM (inactive) | 16.3 µM (inactive) | 8.57 µM (inactive) | 2.43 µM (inactive) | 15.4 µM (inactive) | 15.3 µM (inactive) | 6.19 µM (inactive) | 6.85 µM (inactive) | 
OCCNC1=Nc2ccc(Cl)cc2C(=S)N2CSC[C@@H]12 | > 100 µM (inactive) |  | > 100 µM (inactive) | > 100 µM (inactive) | > 100 µM (inactive) | > 100 µM (inactive) | > 100 µM (inactive) | > 100 µM (inactive) | > 100 µM (inactive) | > 100 µM (inactive) | > 100 µM (inactive) | > 100 µM (inactive) | > 100 µM (inactive) | > 100 µM (inactive) | > 100 µM (inactive) |  | > 100 µM (inactive) | > 100 µM (inactive) | 
CCOC(=O)C(Br)(C(N)=O)C1(O)OC(c2ccccc2)=C(Br)C1=O (centres undefined) | 22.6 µM (inactive) | 2.65 µM (inactive) | > 100 µM (inactive) | 32.1 µM (inactive) | 18.2 µM (inactive) | 21.1 µM (inactive) | 28.4 µM (inactive) | 17.6 µM (inactive) |  | 22.2 µM (inactive) | 20.7 µM (inactive) |  | 23.7 µM (inactive) | 3.42 µM (inactive) | > 100 µM (inactive) | 23.2 µM (inactive) | 20 µM (inactive) | > 100 µM (inactive) | 19.2 µM (inactive)
O=C(O)CCCc1ccc2c(c1)C(C(=O)O)CC2 (centres undefined) | > 100 µM (inactive) | > 100 µM (inactive) | > 100 µM (inactive) | > 100 µM (inactive) | > 100 µM (inactive) | > 100 µM (inactive) | > 100 µM (inactive) | > 100 µM (inactive) |  | > 100 µM (inactive) | > 100 µM (inactive) | > 100 µM (inactive) | > 100 µM (inactive) | > 100 µM (inactive) |  | > 100 µM (inactive) | > 100 µM (inactive) | > 100 µM (inactive) | > 100 µM (inactive)
CN(C)CCNC(=O)c1cccc2c1Oc1cccc([N+](=O)[O-])c1O2 | 19.1 µM (inactive) | 29.6 µM (inactive) | 17.3 µM (inactive) | 16.1 µM (inactive) | 21.1 µM (inactive) | 20.5 µM (inactive) | 16.2 µM (inactive) | 21 µM (inactive) |  | 21.2 µM (inactive) | 15.2 µM (inactive) | 4.74 µM (inactive) | 24.7 µM (inactive) | 16.1 µM (inactive) | 15 µM (inactive) |  | 23.7 µM (inactive) | 17.5 µM (inactive) | 12.7 µM (inactive)
CCOC(=O)Cn1c2ccc(Br)cc2c2nc3ccccc3nc21 | > 100 µM (inactive) | > 100 µM (inactive) |  | > 100 µM (inactive) | 88.7 µM (inactive) | > 100 µM (inactive) | > 100 µM (inactive) | > 100 µM (inactive) | > 100 µM (inactive) | > 100 µM (inactive) | > 100 µM (inactive) | > 100 µM (inactive) | > 100 µM (inactive) |  | > 100 µM (inactive) |  |  | > 100 µM (inactive) | > 100 µM (inactive)
COc1cc(N2C(=O)C(=O)C3(CCCCC3)C2=O)cc(OC)c1OC | > 100 µM (inactive) | > 100 µM (inactive) |  | 57.5 µM (inactive) | > 100 µM (inactive) | > 100 µM (inactive) | > 100 µM (inactive) | > 100 µM (inactive) |  | > 100 µM (inactive) | > 100 µM (inactive) | > 100 µM (inactive) | > 100 µM (inactive) | > 100 µM (inactive) |  | > 100 µM (inactive) | > 100 µM (inactive) | > 100 µM (inactive) | > 100 µM (inactive)
